The values below come from patent EP4745134A1 (Jiangsu Yahong Meditech Co., Ltd., priority 2023, dated 2025).

One experiment has as its system HCT116-WT cells. Kind of experiment: Inhibitory activity against cell proliferation (CellTiter Glo, 6 days), HCT116-WT. The format is cell-based. Conditions: 144 h, HCT116-WT cells, 6 days, CellTiter Glo; read-out: HCT116-WT IC50. The gist of the method:
(§1)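 Viability IC50s come from CellTiter Glo luminescence after 6 days' exposure to compound (8 concentrations, 4-fold steps, top 10000 nM), relative to DMSO wells. Cells were MTAP-KO or WT HCT116, seeded at 250 per well in McCoy's 5A with 10% FBS and incubated overnight before dosing.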
On the technique in general: Cellular ATP, detected with luciferase, serves as a proxy for viable cell number.

Another experiment deals with HCT116 MTAP KO cells. Kind of experiment: Inhibitory activity against cell proliferation (CellTiter Glo, 6 days), HCT116 MTAP KO. Conditions: for pIC50: Homo sapiens, HCT-116, 144 h, HCT116 MTAP KO cells, 6 days, CellTiter Glo, read-out: HCT116 MTAP KO IC50; for Selectivity HCT 116-WT/ HCT116 MTAP KO: ratio of IC50 HCT116-WT / HCT116 MTAP KO. The format is cell-based. The gist of the method: as §1

The next experiment addresses PRMT5-MTA (Homo sapiens, UniProt O14744). In words: Enzymatic inhibitory activity against PRMT5-MTA (AlphaScreen). The format is biochemical. Conditions: read-out: IC50. The gist of the method: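 PRMT5/[…] (1 nM) was preincubated for 30 min at room temperature with 1 µM […] and 2.5 µM SAM, then exposed to compound (10-point, 3-fold from 1000 nM) for 15 min at 23 °C. Histone H4 substrate (5 nM) was added and reacted for 45 min at 23 °C. Symmetric dimethyl-R3 H4 was detected by AlphaScreen and IC50 calculated.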
For orientation: Bead proximity is the source of the signal in Alpha formats.

pIC50: −log10 of the molar value.

Chain of PRMT5-MTA (O14744 whole entry): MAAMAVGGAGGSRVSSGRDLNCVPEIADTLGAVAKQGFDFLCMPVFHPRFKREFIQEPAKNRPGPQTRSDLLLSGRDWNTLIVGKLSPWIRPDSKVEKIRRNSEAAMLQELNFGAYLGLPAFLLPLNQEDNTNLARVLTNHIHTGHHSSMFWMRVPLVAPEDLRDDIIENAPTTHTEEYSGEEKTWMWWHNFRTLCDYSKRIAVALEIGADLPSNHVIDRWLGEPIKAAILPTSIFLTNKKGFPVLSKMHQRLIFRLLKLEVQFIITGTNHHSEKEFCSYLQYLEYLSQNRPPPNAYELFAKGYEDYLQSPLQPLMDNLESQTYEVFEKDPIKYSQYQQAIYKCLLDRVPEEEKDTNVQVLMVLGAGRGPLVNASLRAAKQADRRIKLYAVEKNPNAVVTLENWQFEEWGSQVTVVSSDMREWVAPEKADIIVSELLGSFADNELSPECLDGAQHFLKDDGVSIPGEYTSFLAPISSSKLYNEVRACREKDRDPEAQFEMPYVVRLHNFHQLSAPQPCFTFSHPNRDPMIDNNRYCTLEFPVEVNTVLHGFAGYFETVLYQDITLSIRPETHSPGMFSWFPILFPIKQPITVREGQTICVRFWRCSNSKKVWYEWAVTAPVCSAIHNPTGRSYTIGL
Chain of PRMT5-MTA (Q9BQA1 whole entry partner): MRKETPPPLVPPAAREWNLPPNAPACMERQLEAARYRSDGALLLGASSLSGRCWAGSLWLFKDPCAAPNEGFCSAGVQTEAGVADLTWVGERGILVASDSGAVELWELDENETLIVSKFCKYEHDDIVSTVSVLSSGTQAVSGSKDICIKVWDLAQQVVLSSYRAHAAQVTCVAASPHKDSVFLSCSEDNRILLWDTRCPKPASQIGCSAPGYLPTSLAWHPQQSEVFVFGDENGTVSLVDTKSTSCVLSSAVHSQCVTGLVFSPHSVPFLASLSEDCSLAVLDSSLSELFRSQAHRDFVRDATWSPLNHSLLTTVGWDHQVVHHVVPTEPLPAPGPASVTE

For `Cc1cc2nc(N)c3cnn(C)c3c2cc1C(=O)N1CC(C)CN1c1ncc(C#CC(C)(C)O)cc1F` (centres unmarked) [Example 493, (4-amino-1,7-dimethyl-1H-pyrazolo[4,3-c]quinolin-8-yl)(2-(3-fluoro-5-(3-hydroxy-3-methyl-but-1-yn-1-yl)pyridin-2-yl)-4-methylpyrazolidin-1-yl)methanone], the pIC50 with HCT116-WT cells was 5.72; with HCT116 MTAP KO cells it was 7.17; on PRMT5-MTA it was 8.29. The “Selectivity HCT 116-WT/ HCT116 MTAP KO” value with HCT116 MTAP KO cells worked out at 27.94.

As for `Cc1cc2cc(C(=O)N(Cc3ccc(-c4ccc(C(F)(F)F)nc4)cn3)N(C)c3ncccn3)ccc2nc1N` [Example 154, 2-amino-N',3-dimethyl-N'-(pyrimidin-2-y 1)-N-((6'-(trifluoromethyl)-[3,3'-bipyridine]-6-yl)methyl)quinoline-6-carbohydrazide], the pIC50 in the experiment on HCT116-WT cells is 6.08; with HCT116 MTAP KO cells it was 7.22; at PRMT5-MTA, 8.80. Moreover, the “Selectivity HCT 116-WT/ HCT116 MTAP KO” value in the experiment with HCT116 MTAP KO cells is listed as 13.88.

As to `Cc1cc2cc(C(=O)N(Cc3ccc(N4CC(F)(F)C4)cn3)N(C)c3ncccn3)ccc2nc1N` [Compound 225, 2-amino-N-((5-(3,3-difluoroazetidin-1-yl)pyridin-2-yl)methyl)-N',3-dimethyl-N'-(pyrimidin-2-yl)quinoline-6-carbohydrazide], the pIC50 in the experiment with HCT116-WT cells is 5.58; in the experiment on HCT116 MTAP KO cells, 6.69; on PRMT5-MTA, 7.80. Moreover, the “Selectivity HCT 116-WT/ HCT116 MTAP KO” value in the experiment on HCT116 MTAP KO cells is 13.00.

As to `COc1cc(-c2ccc(CN(C(=O)c3ccc4nc(N)c(C)cc4c3)N(C)c3ncccn3)nc2)cnc1F` [Example 199, 2-amino-N-((6'-fluoro-5'-methoxy-[3,3'-bipyridine]-6-yl)methyl)-N',3-dimethyl-N'-(pyrimidin-2-yl)quinoline-6-carbohydrazide], the values for the pIC50 in the experiment with HCT116-WT cells, with HCT116 MTAP KO cells and on PRMT5-MTA were 5.71, 6.97 and 8.60, respectively. For the same compound, the “Selectivity HCT 116-WT/ HCT116 MTAP KO” value in the experiment with HCT116 MTAP KO cells was determined as 18.53.

For the compound `COCc1ncsc1-c1ccc(CN(C(=O)c2ccc3nc(N)c(C)cc3c2)N(C)c2ncccn2)nc1` [Example 226, 2-amino-N-((5-(4-(methoxymethyl)thiazol-5-yl)pyridin-2-yl)methyl)-N',3-dimethyl-N'-(pyrimidin-2-yl)quinoline-6-carbohydrazide], the figures for the pIC50 with HCT116-WT cells, in the experiment on HCT116 MTAP KO cells and at PRMT5-MTA were 6.05, 7.55 and 8.30, respectively. For the same compound, in the experiment on HCT116 MTAP KO cells, the “Selectivity HCT 116-WT/ HCT116 MTAP KO” value turned out to be 31.82.

As to `Cc1cc2nc(N)c3cnn(C)c3c2cc1C(=O)N1CC(C)CN1c1ncc(-c2nncs2)cc1F` (centres unmarked) [Example 487, (4-amino-1,7-dimethyl-1H-pyrazolo[4,3-c]quinolin-8-yl)(2-(3-fluoro-5-(1,3,4-thiadiazol-2-yl)pyridin-2-yl)-4-methylpyrazolidin-1-yl)methanone], the pIC50 in the experiment with HCT116-WT cells is 5.63; in the experiment with HCT116 MTAP KO cells, 7.24; at PRMT5-MTA it was 8.17. The “Selectivity HCT 116-WT/ HCT116 MTAP KO” value in the experiment with HCT116 MTAP KO cells worked out at 40.52.

Take `Cc1cc2nc(N)c3c(c2cc1C(=O)N1CC(C)CN1c1ncccc1F)COC3` (centres unmarked) [Example 512, (4-amino-7-methyl-1,3-dihydrofuro[3,4-c]quinolin-8-yl)(2-(3-fluoropyridin-2-yl)-4-methylpyrazolidin-1-yl)methanone]: the pIC50 is 5.23 in the experiment on HCT116-WT cells, 6.59 in the experiment with HCT116 MTAP KO cells and 8.30 at PRMT5-MTA. Moreover, the “Selectivity HCT 116-WT/ HCT116 MTAP KO” value with HCT116 MTAP KO cells is 22.53.

For `Cn1ncc2c(N)nc3cc(Cl)c(C(=O)N4CC(F)(F)CN4c4ncc(F)cc4F)cc3c21` [Example 458, (4-amino-7-chloro-1-methyl-1H-pyrazolo [4,3-c]quinolin-8-yl)(2-(3,5-difluoropyridin-2-yl)-4,4-difluoropyrazolidin-1-yl)met hanone], the results for the pIC50 in the experiment with HCT116-WT cells, with HCT116 MTAP KO cells and on PRMT5-MTA were 6.43, 7.82 and 8.29, respectively. In the experiment on HCT116 MTAP KO cells, the “Selectivity HCT 116-WT/ HCT116 MTAP KO” value was 24.73.

On to `Cc1cc2nc(N)c3cnn(C)c3c2cc1C(=O)N1CC2(CCC2)CN1c1ncccc1F` [Example 348, (4-amino-1,7-dimethyl-1H-pyrazolo[4,3-c]quinolin-8-yl)(7-(3-fluoropyridin-2-yl)-6,7-diazaspiro[3.4]octan-6-yl)methanone], for which the pIC50 was 6.68 in the experiment on HCT116-WT cells, 8.16 in the experiment with HCT116 MTAP KO cells and 8.12 at PRMT5-MTA. Further, the “Selectivity HCT 116-WT/ HCT116 MTAP KO” value with HCT116 MTAP KO cells was determined as 30.14.

Turning to `Cc1cc2nc(N)c3cnn(C)c3c2cc1C(=O)N1CC(C)(C)CN1c1ncccc1F` [Example 330, (4-amino-1,7-dimethyl-1H-pyrazolo[4,3-c]quinolin-8-yl)(2-(3-fluoropyridin-2-yl)-4,4-dimethylpyrazolidin-1-yl)methanone], the figures for the negative-log IC50 (pIC50) in the experiment on HCT116-WT cells, in the experiment with HCT116 MTAP KO cells and at PRMT5-MTA were 6.22, 7.62 and 7.89, respectively. Also, the “Selectivity HCT 116-WT/ HCT116 MTAP KO” value in the experiment with HCT116 MTAP KO cells is recorded as 25.13.

`Cc1cc2cc(C(=O)N(Cc3ccc(-c4nncs4)cn3)N(c3ncccn3)C3CC3)ccc2nc1N` [Example 250, N-((5-(1,3,4-thiadiazol-2-yl)pyridin-2-yl)methyl)-2-amino-N'-cyclopropyl-3-methyl-N'-(pyrimidin-2-yl)quinoline-6-carbohy drazide]: the pIC50 in the experiment on HCT116-WT cells is 6.09; in the experiment on HCT116 MTAP KO cells it was 7.39; at PRMT5-MTA it was 8.43. In addition, the “Selectivity HCT 116-WT/ HCT116 MTAP KO” value in the experiment with HCT116 MTAP KO cells was 20.00.

Regarding `Cc1cc2cc(C(=O)N(Cc3ccc(C(F)(F)F)cn3)N(C)c3ncccn3)ncc2nc1N` [Example 306, 2-amino-N',3-dimethyl-N'-(pyrimidin-2-yl)-N-((5-(trifluoromethyl)pyridin-2-yl)methyl) -1,7-naphthyridine-6-carbohydrazide], the pIC50 is 5.41 in the experiment with HCT116-WT cells, 6.50 in the experiment on HCT116 MTAP KO cells and 8.31 on PRMT5-MTA. Also, in the experiment on HCT116 MTAP KO cells, the “Selectivity HCT 116-WT/ HCT116 MTAP KO” value is given as 12.15.

With `Cc1cc2nc(N)c3cnn(C)c3c2cc1C(=O)N1C[C@@H](C)CN1c1ncccc1F` (single isomer, unassigned) [Example 464], the negative-log IC50 (pIC50) in the experiment with HCT116-WT cells was 5.96; in the experiment on HCT116 MTAP KO cells, 7.77; on PRMT5-MTA, 8.51. Also, in the experiment on HCT116 MTAP KO cells, the “Selectivity HCT 116-WT/ HCT116 MTAP KO” value is given as 64.06.

`Cc1cc2cc(C(=O)N(Cc3ccc(C4(F)COC4)cn3)N(C)c3ncccn3)ccc2nc1N` [Example 286, 2-amino-N-((5-(3-fluorooxetan-3-yl)pyridin-2-yl)methyl)-N',3-dimethyl-N'-(pyrimidin-2-yl)quinoline-6-carbohydrazide]: the pIC50 in the experiment with HCT116-WT cells was 5.62; in the experiment on HCT116 MTAP KO cells, 7.04; at PRMT5-MTA it was 8.57. Also, the “Selectivity HCT 116-WT/ HCT116 MTAP KO” value in the experiment on HCT116 MTAP KO cells is on record as 26.60.

Take `CCC1CN(C(=O)c2cc3c(cc2C)nc(N)c2cnn(C)c23)N(c2ncccc2F)C1` (centres unmarked) [Example 415, (4-amino-1,7-dimethyl-1H-pyrazolo[4,3-c]quinolin-8-yl)(4-ethyl-2-(3-fluoropyridin-2-yl)pyrazolidin-1-yl)methanone]: the pIC50 in the experiment with HCT116-WT cells was 6.09; in the experiment on HCT116 MTAP KO cells, 7.72; on PRMT5-MTA, 8.59. Besides, in the experiment with HCT116 MTAP KO cells, the “Selectivity HCT 116-WT/ HCT116 MTAP KO” value came out at 42.63.

Take `Cc1cc2cc(C(=O)N(Cc3ccc(C(F)(F)F)cn3)N(C)c3nccc4cccnc34)ccc2nc1N` [Example 91, 2-amino-N',3-dimethyl-N'-(1,7-naphthyridin-8-yl)-N-((5-(trifluoromethyl)pyridin-2-yl)methyl)quinoline-6-carbohydrazide]: the pIC50 was 5.77 in the experiment with HCT116-WT cells, 7.37 in the experiment on HCT116 MTAP KO cells and 8.54 at PRMT5-MTA. Also, the “Selectivity HCT 116-WT/ HCT116 MTAP KO” value with HCT116 MTAP KO cells is 39.42.

With `CCOc1ccc(N2CC(C)CN2C(=O)c2cc3c(cc2C)nc(N)c2cnn(C)c23)nn1` (centres unmarked) [Example 385, (4-amino-1,7-dimethyl-1H-pyrazolo[4,3-c]quinolin-8-yl)(2-(6-ethoxypyridazin-3-yl)-4-methylpyrazolidin-1-yl)methanone], the pIC50 was 5.42 in the experiment with HCT116-WT cells, 6.98 in the experiment with HCT116 MTAP KO cells and 8.27 at PRMT5-MTA. Besides, the “Selectivity HCT 116-WT/ HCT116 MTAP KO” value with HCT116 MTAP KO cells is recorded as 36.22.

For `COC(C)(C)C#Cc1cnc(N2CC(C)CN2C(=O)c2cc3c(cc2C)nc(N)c2cnn(C)c23)c(F)c1` (centres unmarked) [Example 491, (4-amino-1,7-dimethyl-1H-pyrazolo[4,3-c]quinolin-8-yl)(2-(3-fluoro-5-(3-methoxy-3-methylbut-1-yn-1-yl)pyridin-2-yl)-4-methylpyrazolidin-1-yl)methanone], the values for the pIC50 in the experiment with HCT116-WT cells, with HCT116 MTAP KO cells and at PRMT5-MTA were 5.65, 6.72 and 8.07, respectively. Besides, in the experiment with HCT116 MTAP KO cells, the “Selectivity HCT 116-WT/ HCT116 MTAP KO” value is given as 11.81.

For `Cc1cc2cc(C(=O)N(Cc3ccc(-c4ccc(N5CCOCC5)nc4)cn3)N(C)c3ncccn3)ccc2nc1N` [Example 176, 2-amino-N',3-dimethyl-N-((6'-morpholinyl-[3,3'-bipyridine]-6-yl)methyl)-N'-(pyrimidin-2-yl)quinoline-6-carbohydrazide], the pIC50 is 6.00 in the experiment with HCT116-WT cells, 7.24 in the experiment with HCT116 MTAP KO cells and 8.70 on PRMT5-MTA. Also, the “Selectivity HCT 116-WT/ HCT116 MTAP KO” value in the experiment on HCT116 MTAP KO cells was 17.49.

`Cc1cc2cc(C(=O)N(Cc3ccc(-c4cnc(N5CCN(C)CC5)nc4)cn3)N(C)c3ncccn3)ccc2nc1N` [Example 147, 2-amino-N',3-dimethyl-N-((5-(2-(4-methylpiperazin-1-yl)pyrimidin-5-yl)pyridin-2-yl)methyl)-N'-(pyrimidin-2-yl)quinoline-6-carbohydrazide]: the pIC50 with HCT116-WT cells is 5.86; in the experiment on HCT116 MTAP KO cells, 7.34; at PRMT5-MTA it was 8.66. The “Selectivity HCT 116-WT/ HCT116 MTAP KO” value in the experiment with HCT116 MTAP KO cells was found to be 29.93.

Usually pIC50 stands for −log10 of the IC50, conventionally taken in molar units.
